This is an account of results in patent US20230393140A1, “BINDING ASSAYS INVOLVING A PLURALITY OF SYNTHETIC COMPOUNDS, TARGETS, AND COUNTER TARGETS” (SRI International, priority 2020, published 2023).

Numbered stars: 1 amine (or outer) side, 2 acyl side, 3 side chain; on linkers, the order of the positions; unused ones are H or OH. Square brackets hold non-standard residues; d marks the D form. Peptide text beside a SMILES is read from it. * marks the point of attachment. 5FAM = O=C1OC2(c3ccc(O)cc3Oc3cc(O)ccc32)c2ccc(C(=O)*)cc21; NHCH2C6H4(4-CH2CONH2) = NC(=O)Cc1ccc(CN*)cc1; X1 = O=C(Cc1ccc(CN[*:1])cc1)[*:2]

Sequence of TNFα (P01375 77-233 limits assumed): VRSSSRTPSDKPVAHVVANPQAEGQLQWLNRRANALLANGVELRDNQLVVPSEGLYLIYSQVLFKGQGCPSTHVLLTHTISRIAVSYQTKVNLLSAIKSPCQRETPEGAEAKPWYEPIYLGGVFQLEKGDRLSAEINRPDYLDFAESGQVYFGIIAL

The assay addresses TNFα (Homo sapiens, UniProt P01375). Kind of assay: MST binding affinity of resynthesized NNP hits to TNFα. On the set-up: purchased R&D Systems, Inc. 210-TA/CF. To be noted: read-out: KD (nM) [95% conf. int], NNP2 library hit, target TNFα, one-site binding model. In outline:
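Microscale thermophoresis at room temperature, triplicate, 15, 30 and 45 min incubations; targets labeled with RED-NHS 647 dye. Buffers (all 20 mM HEPES pH 7.4 unless noted): IL-6 150 mM KCl, 10 mM MgCl2, 0.1% Pluronic F-127; IL-6R 150 mM NaCl, 10 mM MgCl2, 0.05% Tween-20; TNFα 10 mM HEPES, 150 mM NaCl, 10 mM MgCl2, 0.05% Polysorbate-20; ASGPR adds 2 mM CaCl2, 0.05% Pluronic F-127, 1 mM DTT.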
In the case of `CC(C)C[C@H](NC(=O)[C@@H](CCCCN)NC(=O)[C@@H](Cc1ccccc1)NC(=O)Cc1ccc(CNC(=O)[C@H](CC(C)C)NC(=O)[C@H](NC(=O)[C@@H](CCCNC(=N)N)NC(=O)Cc2ccc(CNC(=O)[C@H](CC(C)C)NC(=O)[C@@H](CCCNC(=N)N)NC(=O)[C@@H](CC(C)C)NC(=O)Cc3ccc(CNC(=O)[C@H](CC(C)C)NC(=O)[C@H](NC(=O)[C@@H](CCCCN)NC(=O)c4ccc5c(c4)C(=O)OC54c5ccc(O)cc5Oc5cc(O)ccc54)C(C)C)cc3)cc2)C(C)C)cc1)C(=O)NCc1ccc(CC(=O)N[C@H](C)C(=O)N[C@H](CCCCN)C(=O)N[C@@H](Cc2ccccc2)C(=O)NCc2ccc(CC(=O)N[C@H](Cc3ccccc3)C(=O)N[C@@H](C(=O)N[C@@H](C)C(=O)NCc3ccc(CC(=O)N4CCC[C@@H]4C(=O)NCC(=O)N[C@H](C(=O)NCc4ccc(CC(=O)N[C@H](CCCCN)C(=O)N[C@H](Cc5ccccc5)C(=O)N[C@@H](Cc5ccccc5)C(=O)NCc5ccc(CC(=O)N[C@H](C)C(=O)N[C@@H](C(=O)N[C@@H](CC(C)C)C(=O)NCc6ccc(CC(N)=O)cc6)C(C)C)cc5)cc4)C(C)C)cc3)[C@H](C)O)cc2)cc1` [TNF-39-7] (5FAM-[dK][dV]L[X1][dL][dR]L[X1][dR][dV]L[X1][dF][dK]L[X1][dA][dK]F[X1][dF][dT]A[X1][dP]GV[X1][dK][dF]F[X1][dA][dV]L-{NHCH2C6H4(4-CH2CONH2)}), the Kd (usually the concentration at which binding is half-saturated) turned out to be 53 nM.
The same measure for `CC(C)C[C@H](NC(=O)[C@@H](CCCNC(=N)N)NC(=O)[C@@H](Cc1c[nH]c2ccccc12)NC(=O)Cc1ccc(CNC(=O)[C@@H](NC(=O)[C@@H](CCC(=O)O)NC(=O)[C@@H](Cc2ccccc2)NC(=O)Cc2ccc(CNC(=O)[C@H](C)NC(=O)[C@@H](Cc3c[nH]cn3)NC(=O)[C@@H](Cc3c[nH]c4ccccc34)NC(=O)Cc3ccc(CNC(=O)[C@H](CC(C)C)NC(=O)[C@H](NC(=O)[C@@H](CCCCN)NC(=O)c4ccc5c(c4)C(=O)OC54c5ccc(O)cc5Oc5cc(O)ccc54)C(C)C)cc3)cc2)C(C)C)cc1)C(=O)NCc1ccc(CC(=O)N[C@H](Cc2ccc(O)cc2)C(=O)N[C@H](CCCCN)C(=O)N[C@@H](C)C(=O)NCc2ccc(CC(=O)N[C@H](CC(N)=O)C(=O)N[C@H](CCCNC(=N)N)C(=O)N[C@@H](Cc3ccccc3)C(=O)NCc3ccc(CC(=O)N4CCC[C@@H]4C(=O)N[C@@H](C(=O)NCC(=O)NCc4ccc(CC(=O)N5CCC[C@@H]5C(=O)N[C@H](CCCNC(=N)N)C(=O)N[C@@H](C)C(=O)NCc5ccc(CC(=O)N[C@H](C)C(=O)N[C@H](CCCCN)C(=O)NCC(=O)NCc6ccc(CC(N)=O)cc6)cc5)cc4)C(C)C)cc3)cc2)cc1` [TNF-39-8] (5FAM-[dK][dV]L[X1][dW][dH]A[X1][dF][dE]V[X1][dW][dR]L[X1][dY][dK]A[X1][dN][dR]F[X1][dP][dV]G[X1][dP][dR]A[X1][dA][dK]G-{NHCH2C6H4(4-CH2CONH2)}): 270 nM; for `CC(C)C[C@H](NC(=O)[C@@H](CCCNC(=N)N)NC(=O)CNC(=O)Cc1ccc(CNC(=O)[C@H](CC(C)C)NC(=O)[C@H](NC(=O)[C@@H](CCCCN)NC(=O)c2ccc3c(c2)C(=O)OC32c3ccc(O)cc3Oc3cc(O)ccc32)C(C)C)cc1)C(=O)NCc1ccc(CC(=O)N[C@H](CCCNC(=N)N)C(=O)N[C@@H](C(=O)N[C@@H](CC(C)C)C(=O)NCc2ccc(CC(=O)N[C@H](Cc3c[nH]c4ccccc34)C(=O)N[C@H](CCCNC(=N)N)C(=O)N[C@@H](CC(C)C)C(=O)NCc3ccc(CC(=O)N[C@H](Cc4c[nH]c5ccccc45)C(=O)N[C@H](CCCNC(=N)N)C(=O)N[C@H](C(=O)NCc4ccc(CC(=O)N[C@H](CO)C(=O)N[C@H](CO)C(=O)N[C@@H](Cc5ccccc5)C(=O)NCc5ccc(CC(=O)N[C@H](C)C(=O)N[C@H](CO)C(=O)N[C@@H](Cc6ccccc6)C(=O)NCc6ccc(CC(=O)N[C@H](Cc7c[nH]c8ccccc78)C(=O)N[C@H](CCCCN)C(=O)N[C@@H](CC(C)C)C(=O)NCc7ccc(CC(=O)N[C@H](Cc8ccc(O)cc8)C(=O)N[C@H](CCCNC(=N)N)C(=O)N[C@@H](Cc8ccccc8)C(=O)NCc8ccc(CC(N)=O)cc8)cc7)cc6)cc5)cc4)C(C)C)cc3)cc2)C(C)C)cc1` [TNF-39-9] (5FAM-[dK][dV]L[X1]G[dR]L[X1][dR][dV]L[X1][dW][dR]L[X1][dW][dR]V[X1][dS][dS]F[X1][dA][dS]F[X1][dW][dK]L[X1][dY][dR]F-{NHCH2C6H4(4-CH2CONH2)}): 150 nM.
Under `CC(C)C[C@H](NC(=O)[C@@H](CCCNC(=N)N)NC(=O)[C@@H](CCC(=O)O)NC(=O)Cc1ccc(CNC(=O)[C@H](Cc2ccccc2)NC(=O)CNC(=O)[C@@H](C)NC(=O)Cc2ccc(CNC(=O)[C@@H](NC(=O)[C@@H](CCCNC(=N)N)NC(=O)[C@H]3CCCN3C(=O)Cc3ccc(CNC(=O)[C@@H](NC(=O)[C@@H](CCC(=O)O)NC(=O)[C@@H](Cc4ccccc4)NC(=O)Cc4ccc(CNC(=O)[C@H](Cc5ccccc5)NC(=O)[C@@H](C)NC(=O)[C@@H](C)NC(=O)Cc5ccc(CNC(=O)[C@H](CC(C)C)NC(=O)[C@H](NC(=O)[C@@H](CCCCN)NC(=O)c6ccc7c(c6)C(=O)OC76c7ccc(O)cc7Oc7cc(O)ccc76)C(C)C)cc5)cc4)C(C)C)cc3)C(C)C)cc2)cc1)C(=O)NCc1ccc(CC(=O)N2CCC[C@@H]2C(=O)N[C@@H](C(=O)NCC(=O)NCc2ccc(CC(=O)N[C@H](Cc3c[nH]c4ccccc34)C(=O)N[C@H](CCCCN)C(=O)N[C@@H](CC(C)C)C(=O)NCc3ccc(CC(=O)N4CCC[C@@H]4C(=O)N[C@H](C)C(=O)N[C@@H](C)C(=O)NCc4ccc(CC(N)=O)cc4)cc3)cc2)C(C)C)cc1` [TNF-39-10] (5FAM-[dK][dV]L[X1][dA][dA]F[X1][dF][dE]V[X1][dP][dR]V[X1][dA]GF[X1][dE][dR]L[X1][dP][dV]G[X1][dW][dK]L[X1][dP][dA]A-{NHCH2C6H4(4-CH2CONH2)}) stands 38 nM.
In the case of `CC(C)C[C@H](NC(=O)[C@@H](CCCCN)NC(=O)[C@@H](Cc1c[nH]c2ccccc12)NC(=O)Cc1ccc(CNC(=O)CNC(=O)[C@H](NC(=O)[C@H]2CCCN2C(=O)Cc2ccc(CNC(=O)[C@H](Cc3ccccc3)NC(=O)[C@@H](CCCNC(=N)N)NC(=O)[C@@H](CC(N)=O)NC(=O)Cc3ccc(CNC(=O)[C@H](Cc4ccccc4)NC(=O)[C@@H](CCCCN)NC(=O)[C@@H](C)NC(=O)Cc4ccc(CNC(=O)[C@H](C)NC(=O)[C@@H](CCCNC(=N)N)NC(=O)[C@@H](Cc5ccccc5)NC(=O)Cc5ccc(CNC(=O)[C@@H](NC(=O)[C@@H](CCC(=O)O)NC(=O)[C@@H](Cc6ccccc6)NC(=O)Cc6ccc(CNC(=O)[C@H](CC(C)C)NC(=O)[C@@H](CCCNC(=N)N)NC(=O)[C@@H](CC(C)C)NC(=O)Cc7ccc(CNC(=O)[C@H](CC(C)C)NC(=O)[C@H](NC(=O)[C@@H](CCCCN)NC(=O)c8ccc9c(c8)C(=O)OC98c9ccc(O)cc9Oc9cc(O)ccc98)C(C)C)cc7)cc6)C(C)C)cc5)cc4)cc3)cc2)C(C)C)cc1)C(=O)NCc1ccc(CC(=O)N[C@H](Cc2ccc(O)cc2)C(=O)N[C@H](CCCNC(=N)N)C(=O)N[C@@H](Cc2ccccc2)C(=O)NCc2ccc(CC(N)=O)cc2)cc1` [TNF-39-11] (5FAM-[dK][dV]L[X1][dL][dR]L[X1][dF][dE]V[X1][dF][dR]A[X1][dA][dK]F[X1][dN][dR]F[X1][dP][dV]G[X1][dW][dK]L[X1][dY][dR]F-{NHCH2C6H4(4-CH2CONH2)}), the Kd is 86 nM.
Regarding `CC(C)C[C@H](NC(=O)[C@@H](CCCNC(=N)N)NC(=O)CNC(=O)Cc1ccc(CNC(=O)[C@H](CC(C)C)NC(=O)[C@H](NC(=O)[C@@H](CO)NC(=O)c2ccc3c(c2)C(=O)OC32c3ccc(O)cc3Oc3cc(O)ccc32)C(C)C)cc1)C(=O)NCc1ccc(CC(=O)N[C@H](Cc2ccccc2)C(=O)N[C@H](CCC(=O)O)C(=O)N[C@H](C(=O)NCc2ccc(CC(=O)N[C@H](Cc3ccccc3)C(=O)N[C@H](CCCCN)C(=O)N[C@@H](CC(C)C)C(=O)NCc3ccc(CC(=O)N[C@H](Cc4ccc(O)cc4)C(=O)N[C@H](CCCCN)C(=O)N[C@@H](C)C(=O)NCc4ccc(CC(=O)N[C@H](CCC(=O)O)C(=O)N[C@H](Cc5c[nH]c6ccccc56)C(=O)N[C@@H](C)C(=O)NCc5ccc(CC(=O)N[C@H](C)C(=O)N[C@H](CCCNC(=N)N)C(=O)N[C@@H](CC(C)C)C(=O)NCc6ccc(CC(=O)N[C@H](CCC(=O)O)C(=O)N[C@H](Cc7ccc(O)cc7)C(=O)N[C@@H](Cc7ccccc7)C(=O)NCc7ccc(CC(=O)N[C@H](Cc8ccc(O)cc8)C(=O)N[C@H](CCCNC(=N)N)C(=O)N[C@@H](Cc8ccccc8)C(=O)NCc8ccc(CC(N)=O)cc8)cc7)cc6)cc5)cc4)cc3)cc2)C(C)C)cc1` [TNF-39-13] (5FAM-[dS][dV]L[X1]G[dR]L[X1][dF][dE]V[X1][dF][dK]L[X1][dY][dK]A[X1][dE][dW]A[X1][dA][dR]L[X1][dE][dY]F[X1][dY][dR]F-{NHCH2C6H4(4-CH2CONH2)}), the Kd is 40 nM.
The same measure for `CC(C)C[C@H](NC(=O)[C@@H](CCCCN)NC(=O)[C@@H](CC(C)C)NC(=O)Cc1ccc(CNC(=O)[C@H](CC(C)C)NC(=O)[C@@H](CCCNC(=N)N)NC(=O)[C@@H](CC(C)C)NC(=O)Cc2ccc(CNC(=O)[C@H](CC(C)C)NC(=O)[C@@H](CC(C)C)NC(=O)[C@@H](Cc3ccc(O)cc3)NC(=O)c3ccc4c(c3)C(=O)OC43c4ccc(O)cc4Oc4cc(O)ccc43)cc2)cc1)C(=O)NCc1ccc(CC(=O)N[C@H](Cc2ccccc2)C(=O)N[C@H](CCCNC(=N)N)C(=O)N[C@@H](C)C(=O)NCc2ccc(CC(=O)N[C@H](C)C(=O)N[C@H](CCCCN)C(=O)N[C@@H](Cc3ccccc3)C(=O)NCc3ccc(CC(=O)N[C@H](Cc4ccccc4)C(=O)N[C@@H](C(=O)N[C@@H](C)C(=O)NCc4ccc(CC(=O)N5CCC[C@@H]5C(=O)N[C@@H](C(=O)NCC(=O)NCc5ccc(CC(=O)N[C@@H](C(=O)N[C@H](Cc6c[nH]cn6)C(=O)N[C@@H](CC(C)C)C(=O)NCc6ccc(CC(=O)N[C@@H](C(=O)N[C@H](CO)C(=O)N[C@H](C(=O)NCc7ccc(CC(N)=O)cc7)C(C)C)[C@H](C)O)cc6)[C@H](C)O)cc5)C(C)C)cc4)[C@H](C)O)cc3)cc2)cc1` [TNF-39-14] (5FAM-[dY][dL]L[X1][dL][dR]L[X1][dL][dK]L[X1][dF][dR]A[X1][dA][dK]F[X1][dF][dT]A[X1][dP][dV]G[X1][dT][dH]L[X1][dT][dS]V-{NHCH2C6H4(4-CH2CONH2)}): 36 nM.
